Results on 22 compounds are retold here after patent publication US7417062B2, “Substituted arylamides” (ChemoCentryx, Inc., priority 2004, dated 2008).

Molecules are shown by their SMILES.

The target in this test is T1, CCXCKR2 receptor (Homo sapiens, UniProt P25106).
T1 construct: host or cells: MCF-7 (endogenous) and/or MDA-MB-435S transfected with hRDC1 in pcDNA3.1(+)
T1 sequence (P25106 whole entry): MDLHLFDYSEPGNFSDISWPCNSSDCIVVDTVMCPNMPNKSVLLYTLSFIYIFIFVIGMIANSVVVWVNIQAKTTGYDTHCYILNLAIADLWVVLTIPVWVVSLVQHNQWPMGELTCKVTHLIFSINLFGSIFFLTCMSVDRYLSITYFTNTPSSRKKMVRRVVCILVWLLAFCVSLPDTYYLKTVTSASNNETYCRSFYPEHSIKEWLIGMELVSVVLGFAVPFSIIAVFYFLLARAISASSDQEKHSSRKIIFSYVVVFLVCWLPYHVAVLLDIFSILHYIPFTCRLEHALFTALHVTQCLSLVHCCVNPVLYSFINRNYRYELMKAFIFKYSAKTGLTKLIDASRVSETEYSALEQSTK
Put plainly: Displacement of 125I-labeled SDF-1 from the CCXCKR2 receptor (radioligand binding, determination of IC50 values). To be noted: MCF-7 and/or MDA-MB-435S cells expressing CCXCKR2; 125I SDF-1; 3 hr at 4° C.; read-out: Activity (ability to displace 125I SDF-1 from CCXCKR2). The method, then:
The ability of the compounds to displace the labeled chemokine from the CCXCKR2 receptor sites at multiple concentrations was then determined with the screening process.
Compounds that were deemed effective modulators were able to displace at least 50% of the SDF-1 from the CCXCKR2 receptor at concentrations at or below 10 micromolar (μM) and more preferably at concentrations at or below 2 micromolar. At present, especially preferred compounds can displace at least 50% of the SDF-1 from the CCXCKR2 receptor at concentrations at or below 500 nM. Exemplary compounds that met these criteria are reproduced in Table B below. All compounds were prepared as described in the Examples above, or by related methods substituting readily available starting materials.
Reagents and Cells. ^125I-labeled SDF-1 was purchased from Perkin-Elmer Life Sciences, Inc. (Boston, Mass.). The MCF-7 (adenocarcinoma; mammary gland) cell line was obtained from the American Type Culture Collection (Manassas, Va.) or and was cultured in DMEM (Mediatech, Herndon, Va.) supplemented with 10% fetal bovine serum (FBS) (HyClone Logan, Utah) and bovine insulin (0.01 mg/mL) (Sigma, St. Louis, Mo.) at 37° C. in a humidified incubator at a 5% CO2/air mixture. CCXCKR2 transfected MDA-MB-435S were produced as described below. MDA-MB-435S human breast cancer line, was purchased from ATCC, and cultured in DMEM/10% FBS medium. The complete coding sequence of the gene encoding CCXCKR2 (a.k.a.CXCR7, hRDC1), was isolated from MCF-7 cells using μMACs mRNA isolation kit (Miltenyi Biotec, Auburn, Calif.). DNA contamination was removed by DNase digestion via RNeasy columns (Qiagen, Inc., Valencia, Calif.) and cDNA was generated using GeneAmp RNA PCR Core Kit (Applied Biosystems, Foster City, Calif.). PCR of cDNA samples was performed using Taq PCR Master Mix kit (Qiagen, Inc.) and hRDC1 primers harboring 5′ and 3′ Not I sites (hRDC1F 5′-[…]-3′ (SEQ ID NO:1), hRDC1R 5′-[…]-3′ (SEQ ID NO:2)) Not I digested PCR product was ligated into Not I digested pcDNA3.1(+)(Invitrogen, Carlsbad, Calif.) and screened for orientation and sequence confirmed. Plasmid DNA was then isolated from overnight bacterial cultures by Maxiprep (Qiagen, Inc.). Plasmid DNA (10 μg) was added to MDA-MB-435s cells and cells were electroporated (0.22 kV, 960 uF) via Gene Pulser (Biorad laboratories, Hercules, Calif.). 48 hr post-electroporation, cells were transferred to selection medium (1000 ug/ml G418).
Binding Analysis. Target compounds were tested to determine their ability to bind with CCXCKR2 sites on MCF-7 and/or MDA-MB-435S cells. Efficiency-maximized radioligand binding using filtration protocols as described in Dairaghi D J, et al., HHV8-encoded vMIP-I selectively engages chemokine receptor CCR5. Agonist and antagonist profiles of viral chemokines., J. Biol. Chem. 1999 Jul. 30; 274(31): 21569-74 and Gosling J, et al., Cutting edge: identification of a novel chemokine receptor that binds dendritic cell-and T cell-active chemokines including ELC, SLC, and TECK., J. Immunol. 2000 Mar. 15; 164(6):2851-6 was used.
In these assays, MCF-7 and/or MDA-MB-435S cells were interrogated with the target compounds and the ability of these compounds to displace ^125I radiolabeled SDF-1 was assessed using the protocol described in Dairaghi and Gosling. The target compounds were added to the plate to the indicated concentration and were then incubated with cells followed by the addition of radiolabeled chemokine (^125I SDF-1) for 3 hr at 4° C. in the following binding medium (25 mM HEPES, 140 mM NaCl, 1 mM CaCl2, 5 mM MgCl2 and 0.2% bovine serum albumin, adjusted to pH 7.1). All assays were then incubated for 3 hrs at 4° C. with gentle agitation. Following incubation in all binding assays, reactions were aspirated onto PEI-treated GF/B glass filters (Packard) using a cell harvester (Packard) and washed twice (25 mM HEPES, 500 mM NaCl, 1 mM CaCl2, 5 mM MgCl2, adjusted to pH 7.1). […]
Background: Displacement assays read how much labelled ligand stays bound in the presence of the test substance.
`COc1cc(C(=O)N(Cc2cc3ccccc3c[n+]2[O-])C[C@@H]2C[C@@H]3CCCC[C@@H]3N2)cc2c1OC(C)(C)O2` [Example 65, 7-Methoxy-2,2-dimethyl-benzo[1,3]dioxole-5-carboxylic acid [(2S,3aS,7aS)-1-(octahydro-indol-2-yl)methyl]-(2-oxy-isoquinolin-3-ylmethyl)-amide]: the IC50 is less than 2000 nM.

For `COc1cc(C(=O)N(Cc2ccc3ccccc3n2)C[C@@H]2CCCN2CC2CNC2)cc2c1OC(C)(C)O2` [Example 44, 7-Methoxy-2,2-dimethyl-benzo[1,3]dioxole-5-carboxylic acid ((S)-1-azetidin-3-ylmethyl-pyrrolidin-2-ylmethyl)-quinolin-2-ylmethyl-amide], the IC50 is less than 500 nM. As to `COc1cc(C(=O)N(CCCN2CCCCC2C)c2cccc(-c3ccccc3)c2)cc(OC)c1OC` (stereo not shown) [Example 17, N-Biphenyl-3-yl-3,4,5-trimethoxy-N-[3-(2-methyl-piperidin-1-yl)-propyl]-benzamide], the IC50 is less than 500 nM. As for `COc1cc(C(=O)N(Cc2cnc3ccccc3c2)C[C@@H]2C[C@@H]3CCCC[C@@H]3N2)cc2c1OC(C)(C)O2`, the IC50 is less than 2000 nM.

Take `COc1cc(C(=O)N(Cc2nc(-c3ccccc3)cs2)C[C@@H]2CCCN2CC2CNC2)cc2c1OC(C)(C)O2` [Example 52, 7-Methoxy-2,2-dimethyl-benzo[1,3]dioxole-5-carboxylic acid ((S)-1-azetidin-3-ylmethyl-pyrrolidin-2-ylmethyl)-(4-phenyl-thiazol-2-ylmethyl)-amide]: the IC50 was less than 500 nM.

Take `COc1cc(C(=O)N(Cc2nc(-c3ccccc3)c(C(F)(F)F)s2)C[C@@H]2C[C@@H]3CCCC[C@@H]3N2)cc2c1OC(C)(C)O2` [Example 77, 7-Methoxy-2,2-dimethyl-benzo[1,3]dioxole-5-carboxylic acid [(2S,3aS,7aS)-1-(octahydro-indol-2-yl)methyl]-(4-phenyl-5-trifluoromethyl-thiazol-2-ylmethyl)-amide]: the IC50 is less than 500 nM.

As for `COc1cc(C(=O)N(CCC2CCCN2C)Cc2nc3ccccc3s2)cc(OC)c1OC` (stereo not shown) [Example 13, N-Benzothiazol-2-ylmethyl-3,4,5-trimethoxy-N-[2-(1-methyl-pyrrolidin-2-yl)-ethyl]-benzamide], the IC50 was less than 500 nM.

Consider `COc1ccc(C(=O)N(Cc2cnc3ccccc3c2)C[C@@H]2CCCN2CC2CCCCC2)cc1OC` [Example 2, N—(S)-(1-Cyclohexylmethyl-pyrrolidin-2-ylmethyl)-3,4-dimethoxy-N-quinolin-3-ylmethyl-benzamide], for which the IC50 is less than 2000 nM. Under `COc1cc(C(=O)N(CCC2CCCN2C)Cc2csc3ccccc23)cc(OC)c1OC` (stereo not shown) [Example 12, N-Benzo[b]thiophen-3-ylmethyl-3,4,5-trimethoxy-N-[2-(1-methyl-pyrrolidin-2-yl)-ethyl]-benzamide] stands less than 2000 nM; under `COc1cc(C(=O)N(Cc2cc3ccccc3cn2)C[C@@H]2CCCN2C2CCC2)cc2c1OC(C)(C)O2` [Example 62, 7-Methoxy-2,2-dimethyl-benzo[1,3]dioxole-5-carboxylic acid ((S)-1-cyclobutyl-pyrrolidin-2-ylmethyl)-isoquinolin-3-ylmethyl-amide], less than 500 nM; under `COc1cc(C(=O)N(Cc2cnc3ccccc3n2)C[C@@H]2C[C@@H]3CCCC[C@@H]3N2)cc2c1OC(C)(C)O2` [Example 68, 7-Methoxy-2,2-dimethyl-benzo[1,3]dioxole-5-carboxylic acid [(2S,3aS,7aS)-1-(octahydro-indol-2-yl)methyl]-quinoxalin-2-ylmethyl-amide], less than 500 nM. Consider `COc1cc(C(=O)N(Cc2ccc3ccccc3n2)CC2CN(C)C2)cc2c1OC(C)(C)O2` [Example 49, 7-Methoxy-2,2-dimethyl-benzo[1,3]dioxole-5-carboxylic acid (1-methyl-azetidin-3-ylmethyl)-quinolin-2-ylmethyl-amide], for which the IC50 is less than 500 nM.

On to `COc1ccc(C(=O)N(C[C@@H]2CCCN2CC2CC2)c2cccc(-c3cccc(C#N)c3)c2)cc1OC` [Example 34, N-(3′-Cyano-biphenyl-3-yl)-(S)—N-(1-cyclopropylmethyl-pyrrolidin-2-ylmethyl)-3,4-dimethoxy-benzamide], for which the IC50 was less than 10000 nM. For the compound `COc1cc(C(=O)N(CCC2CCCN2C)Cc2cc3ccccc3[nH]2)cc(OC)c1OC` (stereo not shown) [Example 15, N-(1H-Indol-2ylmethyl)-3,4,5-trimethoxy-N-[2-(1-methyl-pyrrolidin-2-yl)-ethyl]-benzamide], the IC50 was less than 2000 nM. Under `COc1cc(C(=O)N(Cc2cc3ccccc3o2)C[C@@H]2CCCN2CC2CCCCC2)cc(OC)c1OC` [Example 4, N-Benzofuran-2-ylmethyl-N—(S)-(1-cyclohexylmethyl-pyrrolidin-2-ylmethyl)-3,4,5-trimethoxy-benzamide] stands less than 500 nM; under `COc1cc(C(=O)N(Cc2ccc3cc(Cl)ccc3n2)C[C@@H]2C[C@@H]3CCCC[C@@H]3N2)cc2c1OC(C)(C)O2` [Example 73, 7-Methoxy-2,2-dimethyl-benzo[1,3]dioxole-5-carboxylic acid (6-chloro-quinolin-2-ylmethyl)-[(2S,3aS,7aS)-1-(octahydro-indol-2-yl)methyl]-amide], less than 500 nM. Under `COc1cc(C(=O)N(Cc2cc3ccccc3cn2)C[C@@H]2CCCN2CC2CNC2)cc2c1OC(C)(C)O2` [Example 39, 7-Methoxy-2,2-dimethyl-benzo[1,3]dioxole-5-carboxylic acid ((S)-1-azetidin-3-ylmethyl-pyrrolidin-2-ylmethyl)-isoquinolin-3-ylmethyl-amide] stands less than 2000 nM; under `COc1ccc(C(=O)N(Cc2nc3ccccc3s2)C[C@@H]2CCCN2)cc1OC` [Example 25, N-Benzothiazol-2-yl methyl-3,4 dimethoxy-N—(S)-pyrrolidin-2-ylmethyl-benzamide], less than 2000 nM. Turning to `COc1cc(C(=O)N(Cc2ccc3cc(F)ccc3n2)C[C@@H]2C[C@@H]3CCCC[C@@H]3N2)cc2c1OC(C)(C)O2` [Example 72, 7-Methoxy-2,2-dimethyl-benzo[1,3]dioxole-5-carboxylic acid (6-fluoro-quinolin-2-ylmethyl)-[(2S,3aS,7aS)-1-(octahydro-indol-2-yl)methyl]-amide], the IC50 is less than 500 nM.

As to `COc1ccc(C(=O)N(Cc2cc3ccccc3o2)C[C@@H]2CCCN2CC2CCCCC2)cc1OC` [Example 3, N-benzofuran-2-ylmethyl-N—(S)-(1-cyclohexylmethyl-pyrrolidin-2-ylmethyl)-3,4-dimethoxy-benzamide], the IC50 was less than 500 nM. Under `COc1cc(C(=O)N(C[C@@H]2CCCN2CC2CCCCC2)c2cccc(-c3ccccc3)c2)ccc1OC(F)F` [Example 33, N-biphenyl-3-yl-(S)—N-(1-cyclohexylmethyl-pyrrolidin-2-ylmethyl)-4-difluoromethoxy-3-methoxy-benzamide] stands less than 500 nM; under `COc1cc(C(=O)N(Cc2cc3ccccc3cn2)C[C@@H]2C[C@@H]3CCCC[C@@H]3N2)cc2c1OC(C)(C)O2` [Example 64, 7-Methoxy-2,2-dimethyl-benzo[1,3]dioxole-5-carboxylic acid isoquinolin-3-ylmethyl-[(2S,3aS,7aS)-1-(octahydro-indol-2-yl)methyl]-amide], less than 500 nM.
